Data: US10208089B2, “Modulation of complement activity” (priority 2014, dated 2019)
Starred links: 1 amine or outer side, 2 acyl side, 3 side chain; linkers in the order of their positions; H or OH if unused. Positions of bridges follow the written chain, without caps; N, C: chain ends. Non-standard residues stand in square brackets, D forms with d. Residues, ends and D or L forms follow the SMILES beside them. Trp(7-aza) = N[C@@H](Cc1c[nH]c2ncccc12)C(=O)O; Trp(1-Me) = Cn1cc(C[C@H](N)C(=O)O)c2ccccc21; Phe(4-F) = N[C@@H](Cc1ccc(F)cc1)C(=O)O; mXylylene = c1cc(C[*:1])cc(C[*:2])c1; dPhg = N[C@@H](C(=O)O)c1ccccc1; Chg = N[C@H](C(=O)O)C1CCCCC1; Phg = N[C@H](C(=O)O)c1ccccc1; Tle = CC(C)(C)[C@H](N)C(=O)O; NMeS = CN[C@@H](CO)C(=O)O; NMeA = CN[C@@H](C)C(=O)O; Nva = CCC[C@H](N)C(=O)O

Biological target: C5 (Homo sapiens, UniProt P01031)
Sequence (P01031 19-1676): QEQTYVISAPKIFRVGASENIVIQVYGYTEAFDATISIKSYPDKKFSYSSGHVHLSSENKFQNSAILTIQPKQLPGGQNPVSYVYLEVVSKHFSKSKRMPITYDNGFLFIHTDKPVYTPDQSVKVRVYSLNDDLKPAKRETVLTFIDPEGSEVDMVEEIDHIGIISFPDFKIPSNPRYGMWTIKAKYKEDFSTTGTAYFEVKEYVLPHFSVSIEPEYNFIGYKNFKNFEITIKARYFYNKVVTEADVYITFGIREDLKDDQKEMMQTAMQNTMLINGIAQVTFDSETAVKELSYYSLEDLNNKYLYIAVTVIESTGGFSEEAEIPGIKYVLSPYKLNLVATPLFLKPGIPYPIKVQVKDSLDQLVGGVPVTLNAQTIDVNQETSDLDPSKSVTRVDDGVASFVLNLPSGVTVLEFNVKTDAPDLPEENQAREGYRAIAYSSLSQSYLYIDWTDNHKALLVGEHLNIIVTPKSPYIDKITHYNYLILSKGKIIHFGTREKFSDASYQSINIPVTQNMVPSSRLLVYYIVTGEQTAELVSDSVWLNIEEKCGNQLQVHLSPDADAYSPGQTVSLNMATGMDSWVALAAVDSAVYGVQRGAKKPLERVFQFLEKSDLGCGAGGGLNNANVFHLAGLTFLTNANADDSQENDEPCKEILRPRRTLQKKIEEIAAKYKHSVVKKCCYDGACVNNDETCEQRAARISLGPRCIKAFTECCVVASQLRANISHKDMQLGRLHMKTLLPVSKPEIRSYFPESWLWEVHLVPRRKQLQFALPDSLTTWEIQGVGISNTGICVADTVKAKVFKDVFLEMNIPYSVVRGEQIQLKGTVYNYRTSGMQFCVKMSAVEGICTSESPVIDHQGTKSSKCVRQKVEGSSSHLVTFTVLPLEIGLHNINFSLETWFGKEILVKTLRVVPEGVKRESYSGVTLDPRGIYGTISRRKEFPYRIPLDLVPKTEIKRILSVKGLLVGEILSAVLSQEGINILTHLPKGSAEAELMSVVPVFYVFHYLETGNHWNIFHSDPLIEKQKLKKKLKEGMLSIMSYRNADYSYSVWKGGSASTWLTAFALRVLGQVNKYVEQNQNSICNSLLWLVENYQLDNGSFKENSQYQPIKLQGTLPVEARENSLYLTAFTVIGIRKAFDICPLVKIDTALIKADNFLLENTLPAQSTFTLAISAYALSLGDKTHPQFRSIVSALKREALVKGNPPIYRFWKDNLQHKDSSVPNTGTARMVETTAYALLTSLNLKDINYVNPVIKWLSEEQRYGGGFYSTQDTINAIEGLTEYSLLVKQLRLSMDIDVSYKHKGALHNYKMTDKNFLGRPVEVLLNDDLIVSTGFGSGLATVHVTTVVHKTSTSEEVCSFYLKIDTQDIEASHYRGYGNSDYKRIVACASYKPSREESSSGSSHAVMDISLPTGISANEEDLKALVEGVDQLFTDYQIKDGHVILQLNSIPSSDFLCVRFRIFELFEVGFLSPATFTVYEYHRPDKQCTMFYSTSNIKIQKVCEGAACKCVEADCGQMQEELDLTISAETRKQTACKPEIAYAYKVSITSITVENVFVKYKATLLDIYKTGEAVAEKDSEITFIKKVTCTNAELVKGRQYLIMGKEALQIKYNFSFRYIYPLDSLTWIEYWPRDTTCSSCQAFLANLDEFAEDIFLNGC
Assay: Human hemolysis assay (RBC lysis assay using complete human sera)
Format: cell-based
Design: with complete human sera (Complement Technology, Tyler Tex.) and polypeptides; tissue Complement Technology, Tyler Tex; host or cells: complete human serum
[1] = inhibition of lysis of antibody-sensitized sheep erythrocytes, complete human sera

SMILES	IC50 [1] [nM]	IC50 (7-azatryptophan variant polypeptides of R3002, inhibition of red blood cell lysis) [nM]	IC50 (7-azatryptophan variant polypeptides of R3008, inhibition of red blood cell lysis) [nM]
CCC[C@H](NC(=O)[C@@H]1CSCc2cccc(c2)CSC[C@H](NC(=O)[C@H](CCC)NC(C)=O)C(=O)N[C@@H](C)C(=O)N[C@@H]([C@@H](C)O)C(=O)N[C@@H](Cc2c[nH]c3ncccc23)C(=O)N[C@@H](CCC(=O)O)C(=O)N[C@@H](Cc2ccc(O)cc2)C(=O)N(C)[C@@H](CO)C(=O)N[C@@H](Cc2c[nH]cn2)C(=O)N1)C(N)=O [Compound R3032, [mXylyl(2,10)]Ac-Nvl-C-A-T-azaTrp-E-Y-(N-Me)S-H-C-Nvl-NH2] (Ac-[Nva]CAT[Trp(7-aza)]EY[NMeS]HC[Nva]-NH2; linker 2-10 via mXylylene)	> 10000	–	–
CC(=O)N[C@H]1CSCc2cccc(c2)CSC[C@@H](C(=O)N[C@@H](CC(=O)O)C(=O)N[C@H](C(=O)N[C@@H](Cc2ccc(O)cc2)C(=O)N[C@@H](Cc2c[nH]c3ccccc23)C(=O)N[C@@H](CCC(=O)O)C(=O)N[C@@H](Cc2ccccc2)C(=O)N2CCC[C@H]2C(N)=O)C(C)C)NC(=O)[C@H](Cc2ccccc2)NC(=O)[C@H](CCCNC(=N)N)NC(=O)[C@H](CCC(=O)O)NC(=O)[C@H](C(C)C)NC1=O [Compound R3141, [mXylyl(1,6)]Ac-C-V-E-R-F-C-D-V-Y-W-E-F-P-NH2] (Ac-CVERFCDVYWEFP-NH2; linker 1-6 via mXylylene)	24.5	–	–
CCC[C@H](NC(=O)[C@@H]1CSCc2cccc(c2)CSC[C@H](NC(=O)[C@H](CCC)NC(C)=O)C(=O)N[C@@H](c2ccccc2)C(=O)N[C@@H]([C@@H](C)O)C(=O)N[C@@H](Cc2c[nH]c3ncccc23)C(=O)N[C@@H](CCC(=O)O)C(=O)N[C@@H](Cc2ccc(O)cc2)C(=O)N(C)[C@@H](C)C(=O)N[C@@H](Cc2c[nH]cn2)C(=O)N1)C(N)=O [Compound R3037, [mXylyl(2,10)]Ac-Nvl-C-Phg-T-azaTrp-E-Y-(N-Me)A-H-C-Nvl-NH2] (Ac-[Nva]C[Phg]T[Trp(7-aza)]EY[NMeA]HC[Nva]-NH2; linker 2-10 via mXylylene)	276	–	–
CCC[C@H](NC(=O)[C@@H]1CSCc2cccc(c2)CSC[C@H](NC(=O)[C@H](CCC)NC(=O)[C@H](Cc2ccc(O)cc2)NC(C)=O)C(=O)N[C@@H](c2ccccc2)C(=O)N[C@@H]([C@@H](C)O)C(=O)N[C@@H](Cc2c[nH]c3ncccc23)C(=O)N[C@@H](CCC(=O)O)C(=O)N[C@@H](Cc2ccc(O)cc2)C(=O)N(C)[C@@H](CO)C(=O)N[C@@H](Cc2c[nH]cn2)C(=O)N1)C(N)=O [Compound R3113, [mXylyl(3,11)]Ac-Y-Nvl-C-Phg-T-azaTrp-E-Y-(N-Me)S-H-C-Nvl-NH2] (Ac-Y[Nva]C[Phg]T[Trp(7-aza)]EY[NMeS]HC[Nva]-NH2; linker 3-11 via mXylylene)	> 5000	–	–
CCC[C@H](NC(=O)[C@@H](NC(=O)[C@@H]1CCCN1C(=O)[C@H](Cc1ccc(O)cc1)NC(=O)[C@H](CCC(=O)O)NC(=O)[C@@H](Cc1c[nH]c2ccccc12)NC(=O)[C@H](Cc1ccc(O)cc1)NC(=O)[C@H](CC(N)=O)NC(=O)[C@H](CCC(=O)O)NC(=O)[C@H](Cc1ccc(O)cc1)NC(C)=O)c1ccccc1)C(N)=O [Compound R3119, Ac-Y-E-N-Y-(D-Trp)-E-Y-P-Phg-Nvl-NH2] (Ac-YENY[dW]EYP[Phg][Nva]-NH2)	> 100000	> 100000	–
CCC[C@H](NC(=O)[C@H](NC(=O)[C@@H]1CCCN1C(=O)[C@H](Cc1ccc(O)cc1)NC(=O)[C@H](CCC(=O)O)NC(=O)[C@H](Cc1c[nH]c2ccccc12)NC(=O)[C@H](Cc1ccc(O)cc1)NC(=O)[C@@H](NC(=O)[C@H](CC(=O)O)NC(=O)[C@@H]1CSCc2cccc(c2)CSC[C@H](NC(C)=O)C(=O)N[C@@H](C)C(=O)N[C@@H](CCC(=O)O)C(=O)N[C@@H](CCCNC(=N)N)C(=O)N[C@@H](Cc2ccccc2)C(=O)N1)C(C)(C)C)c1ccccc1)C(N)=O [Compound R3149, [mXylyl(1,6)]Ac-C-A-E-R-F-C-D-Tbg-Y-W-E-Y-P-(D-Phg)-Nvl-NH2] (Ac-CAERFCD[Tle]YWEYP[dPhg][Nva]-NH2; linker 1-6 via mXylylene)	13.6	–	–
CCC[C@H](NC(=O)[C@@H]1CSCc2cccc(c2)CSC[C@H](NC(=O)[C@H](CCC)NC(C)=O)C(=O)N[C@@H](c2ccccc2)C(=O)N[C@@H]([C@@H](C)O)C(=O)N[C@@H](Cc2c[nH]c3ncccc23)C(=O)N[C@@H](C)C(=O)N[C@@H](Cc2ccc(O)cc2)C(=O)N(C)[C@@H](CO)C(=O)N[C@@H](Cc2c[nH]cn2)C(=O)N1)C(N)=O [Compound R3035, [mXylv1(2,10)]Ac-Nvl-C-Phg-T-azaTrp-A-Y-(N-Me)S-H-C-Nvl-NH2] (Ac-[Nva]C[Phg]T[Trp(7-aza)]AY[NMeS]HC[Nva]-NH2; linker 2-10 via mXylylene)	> 50000	–	–
CCC[C@H](NC(=O)[C@@H]1CSCc2cccc(c2)CSC[C@H](NC(=O)[C@@H](NC(C)=O)C2CCCCC2)C(=O)N[C@@H](c2ccccc2)C(=O)N[C@@H]([C@@H](C)O)C(=O)N[C@@H](Cc2c[nH]c3ncccc23)C(=O)N[C@@H](CCC(=O)O)C(=O)N[C@@H](Cc2ccc(O)cc2)C(=O)N(C)[C@@H](CO)C(=O)N[C@@H](C)C(=O)N1)C(N)=O [Compound R3089, [mXylyl(2,10)]Ac-Chg-C-Phg-T-azaTrp-E-Y-(N-Me)S-A-C-Nvl-NH2] (Ac-[Chg]C[Phg]T[Trp(7-aza)]EY[NMeS]AC[Nva]-NH2; linker 2-10 via mXylylene)	> 15000	–	–
CCC[C@H](NC(=O)[C@@H]1CSCc2cccc(c2)CSC[C@H](NC(=O)[C@H](CCC)NC(C)=O)C(=O)N[C@@H](c2ccccc2)C(=O)N[C@@H]([C@@H](C)O)C(=O)N[C@@H](Cc2cn(C)c3ccccc23)C(=O)N[C@@H](CCC(=O)O)C(=O)N[C@@H](Cc2ccc(O)cc2)C(=O)N(C)[C@@H](CO)C(=O)N[C@@H](C)C(=O)N1)C(N)=O [Compound R3109, [mXylyl(2,10)]Ac-Nvl-C-Phg-T-(1-Me-W)-E-Y-(N-Me)S-A-C-Nvl-NH2] (Ac-[Nva]C[Phg]T[Trp(1-Me)]EY[NMeS]AC[Nva]-NH2; linker 2-10 via mXylylene)	> 100000	–	> 100000
CCC[C@H](NC(C)=O)C(=O)N[C@@H](CCC)C(=O)N[C@@H](Cc1ccc(O)cc1)C(=O)N[C@@H](CCC(=O)O)C(=O)N[C@@H](CC(N)=O)C(=O)N[C@H](C(=O)N[C@@H](Cc1ccc(O)cc1)C(=O)N[C@@H](Cc1c[nH]c2ncccc12)C(=O)N[C@@H](CCC(=O)O)C(=O)N[C@@H](Cc1ccc(O)cc1)C(=O)N1CCC[C@H]1C(=O)N[C@H](C(=O)N[C@@H](CCC)C(=O)N[C@@H](CCCCN)C(N)=O)C1CCCCC1)C(C)(C)C [Compound R3072, Ac-Nvl-Nvl-Y-E-N-Tbg-Y-azaTrp-E-Y-P-Chg-Nvl-K-NH2] (Ac-[Nva][Nva]YEN[Tle]Y[Trp(7-aza)]EYP[Chg][Nva]K-NH2)	26.9	–	–
CC(=O)N[C@H]1CSCc2cccc(c2)CSC[C@@H](C(=O)N[C@@H](CC(=O)O)C(=O)N[C@H](C(=O)N[C@@H](Cc2ccc(O)cc2)C(=O)N[C@@H](Cc2c[nH]c3ccccc23)C(=O)N[C@@H](CCC(=O)O)C(=O)N[C@@H](Cc2ccccc2)C(N)=O)C(C)(C)C)NC(=O)[C@H](Cc2ccccc2)NC(=O)[C@H](CCCNC(=N)N)NC(=O)[C@H](CCC(=O)O)NC(=O)[C@H](C(C)(C)C)NC1=O [Compound R3139, [mXylyl(1,6)]Ac-C-Tbg-E-R-F-C-D-Tbg-Y-W-E-F-NH2] (Ac-C[Tle]ERFCD[Tle]YWEF-NH2; linker 1-6 via mXylylene)	97.2	–	–
CCC[C@H](NC(C)=O)C(=O)N[C@@H](CS)C(=O)N[C@@H](Cc1ccc(O)cc1)C(=O)N[C@@H](CC(N)=O)C(=O)N[C@@H](CC(N)=O)C(=O)N[C@H](C(=O)N[C@@H](CCC(=O)O)C(=O)N[C@@H](Cc1c[nH]c2ncccc12)C(=O)N[C@@H](CCC(=O)O)C(=O)N[C@@H](CS)C(=O)N1CCC[C@H]1C(=O)N[C@H](C(=O)N[C@H](C(N)=O)C(C)(C)C)c1ccccc1)C(C)(C)C [Compound R3126, Ac-Nvl-C-Y-N-N-Tbg-E-azaTrp-E-C-P-Phg-Tbg-NH2] (Ac-[Nva]CYNN[Tle]E[Trp(7-aza)]ECP[Phg][Tle]-NH2)	> 3000	–	–
CC(=O)N[C@H]1CSCc2cccc(c2)CSC[C@@H](C(=O)N[C@@H](CC(=O)O)C(=O)N[C@H](C(=O)N[C@@H](Cc2ccc(O)cc2)C(=O)N[C@@H](Cc2c[nH]c3ccccc23)C(=O)N[C@@H](CCC(=O)O)C(=O)N[C@@H](Cc2ccccc2)C(N)=O)C(C)C)NC(=O)[C@H](Cc2ccccc2)NC(=O)[C@H](CCCNC(=N)N)NC(=O)[C@H](CCC(=O)O)NC(=O)[C@H](C(C)(C)C)NC1=O [Compound R3146, [mXylyl(1,6)]Ac-C-Tbg-E-R-F-C-D-V-Y-W-E-F-NH2] (Ac-C[Tle]ERFCDVYWEF-NH2; linker 1-6 via mXylylene)	107	–	–
CCC[C@H](NC(=O)[C@@H]1CSCc2cccc(c2)CSC[C@H](NC(=O)[C@H](CCC)NC(C)=O)C(=O)N[C@@H](c2ccccc2)C(=O)N[C@@H]([C@@H](C)O)C(=O)N[C@@H](Cc2c[nH]c3ncccc23)C(=O)N[C@@H](CCC(=O)O)C(=O)N[C@@H](Cc2ccc(F)cc2)C(=O)N(C)[C@@H](CO)C(=O)N[C@@H](Cc2c[nH]cn2)C(=O)N1)C(N)=O [Compound R3073, [mXyly1(2,10)]Ac-Nvl-C-Phg-T-azaTrp-E-Phe(4-F)-(N-Me)S-H-C-Nvl-NH2] (Ac-[Nva]C[Phg]T[Trp(7-aza)]E[Phe(4-F)][NMeS]HC[Nva]-NH2; linker 2-10 via mXylylene)	403	–	–
CC(=O)N[C@H]1CSCc2cccc(c2)CSC[C@@H](C(N)=O)NC(=O)[C@H](Cc2c[nH]cn2)NC(=O)[C@H](CO)N(C)C(=O)[C@H](Cc2ccc(O)cc2)NC(=O)[C@H](CCC(=O)O)NC(=O)[C@H](Cc2c[nH]c3ncccc23)NC(=O)[C@H](Cc2ccc(O)cc2)NC(=O)[C@H](C(C)(C)C)NC1=O [Compound R3016, [mXylyl(1,9)]Ac-C-Tbg-Y-azaTrp-E-Y-(N-Me)S-H-C-NH2] (Ac-C[Tle]Y[Trp(7-aza)]EY[NMeS]HC-NH2; linker 1-9 via mXylylene)	> 13000	–	–
